ChEMBL document CHEMBL5233223, “Dammarane-type leads panaxadiol and protopanaxadiol for drug discovery: Biological activity and structural modification” (Eur J Med Chem, 2020)

Columns and labels:
Type in all cases: functional, cell-based
[1] = system: HepG2; assay: Antiproliferative activity against human HepG2 cells assessed as cell growth inhibition
[2] = system: A549; assay: Antiproliferative activity against human A549 cells assessed as cell growth inhibition
[3] = system: HL-60; assay: Antiproliferative activity against human HL-60 cells assessed as cell growth inhibition

IC50 [1]: 9.2 µM | IC50 [2]: 29.7 µM | IC50 [3]: 11.6 µM
Compound: CCCCCCC/C=C\CCCCCCCC(=O)O[C@H]1CC[C@@]2(C)C(CC[C@]3(C)C2C[C@@H](O)C2C([C@@](C)(O)CCC=C(C)C)CC[C@]23C)C1(C)C (stereo partly drawn)
